# Values of other authors, collected in patent US12502363B2, “Ketamine and ketamine/nap for treatment of ADNP syndrome and related neurological conditions” (ADNP Kids Research Foundation, priority 2019, dated 2025).
# How the values were obtained:
# [1] = test system: ADNP gene expression in the somatosensory cortex; conditions: somatosensory cortex of post-natal day 7 rats, anesthetic dose of ketamine (20 mg/kg), microarray
# ADNP = conditions: 5 mg/kg ketamine, healthy rats without ADNP mutations
# [2] = test system: activated caspase-3 (AC3); conditions: anesthetic doses of ketamine
smiles,measurement,setting,value
"CNC1(c2ccccc2Cl)CCCCC1=O (stereo not drawn) [ketamine, Ketamine]",ADNP gene expression,[1],increases significantly
same,ADNP in the Fasciola Cinereum (FC) and SSC layers II/III,ADNP,increased ADNP
same,levels of pro-apoptotic enzyme activated caspase-3 (AC3),[2],increased levels
